# Assay results published in the supplement of paper PMC10307832.
# Legend:
# Assay in all cases: relative viability (nuclei count vs DMSO), 5 days (fraction); higher = more cells survive
# Serdemetan + Alpelisib = compound: c1ccc2c(CCNc3ccc(Nc4ccncc4)cc3)c[nH]c2c1 [Serdemetan] + Cc1nc(NC(=O)N2CCC[C@H]2C(N)=O)sc1-c1ccnc(C(C)(C)C(F)(F)F)c1 [Alpelisib] (partner 2 µM)
# How it was run: (§1)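 One day after seeding in 1536-well plates, lung cancer cell lines were dosed by pin tool. Dosing was either single-drug or a fixed anchor-drug dose plus five library-drug doses (not always all listed) in √10 steps. After 5 days, nuclei were stained in one fix-and-stain step and counted on 4× images, and relative viability is the nuclei count of treated wells over that of vehicle wells, given as the median of duplicate plates.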
# Selisistat + Palbociclib = compound: C1CC(C2=C(C1)C3=C(N2)C=CC(=C3)Cl)C(=O)N [Selisistat] + CC(=O)c1c(C)c2cnc(Nc3ccc(N4CCNCC4)cn3)nc2n(C2CCCC2)c1=O [Palbociclib] (partner 0.5 µM)
# How it was run: as §1
# Serdemetan + Decitabine = compound: c1ccc2c(CCNc3ccc(Nc4ccncc4)cc3)c[nH]c2c1 [Serdemetan] + Nc1ncn([C@H]2C[C@H](O)[C@@H](CO)O2)c(=O)n1 [Decitabine] (partner 2 µM)
# How it was run: as §1
# Selisistat + Pemetrexed = compound: C1CC(C2=C(C1)C3=C(N2)C=CC(=C3)Cl)C(=O)N [Selisistat] + Nc1nc2[nH]cc(CCc3ccc(C(=O)N[C@@H](CCC(=O)O)C(=O)O)cc3)c2c(=O)[nH]1 [Pemetrexed] (partner 0.2 µM)
# How it was run: as §1
Cell Line,relative viability (Serdemetan + Alpelisib; first compound 0.04 µM),relative viability (Serdemetan + Alpelisib; first compound 0.1265 µM),relative viability (Serdemetan + Alpelisib; first compound 0.4 µM),relative viability (Serdemetan + Alpelisib; first compound 1.265 µM),relative viability (Serdemetan + Alpelisib; first compound 4 µM),relative viability (Selisistat + Palbociclib; first compound 0.4 µM),relative viability (Selisistat + Palbociclib; first compound 1.265 µM),relative viability (Selisistat + Palbociclib; first compound 4 µM),relative viability (Selisistat + Palbociclib; first compound 12.65 µM),relative viability (Selisistat + Palbociclib; first compound 40 µM),relative viability (Serdemetan + Decitabine; first compound 0.04 µM),relative viability (Serdemetan + Decitabine; first compound 0.1265 µM),relative viability (Serdemetan + Decitabine; first compound 0.4 µM),relative viability (Serdemetan + Decitabine; first compound 1.265 µM),relative viability (Serdemetan + Decitabine; first compound 4 µM),relative viability (Selisistat + Pemetrexed; first compound 0.4 µM),relative viability (Selisistat + Pemetrexed; first compound 1.265 µM),relative viability (Selisistat + Pemetrexed; first compound 4 µM),relative viability (Selisistat + Pemetrexed; first compound 12.65 µM),relative viability (Selisistat + Pemetrexed; first compound 40 µM)
BEN,0.929,1.02,0.987,0.99,0.824,0.467,0.502,0.486,0.448,0.459,0.649,0.612,0.726,0.631,0.647,0.876,0.614,0.532,0.698,0.68
NCI-H23,0.674,0.682,0.577,0.538,0.596,0.57,0.51,,0.538,0.441,0.303,0.308,0.223,,0.302,0.649,0.742,,0.619,0.595
NCI-H1395,0.863,0.903,1.12,0.912,0.564,0.579,0.664,,0.6,0.55,0.772,0.694,0.687,0.637,0.57,0.97,0.968,,0.639,0.908
201T,0.965,0.995,1.01,0.939,0.883,0.369,0.338,0.32,0.333,0.365,0.863,0.801,0.783,0.489,0.593,0.325,0.299,0.364,0.343,0.324
NCI-H2170,0.776,0.854,0.833,0.721,0.811,0.436,0.396,0.413,0.458,0.475,0.419,0.497,0.437,0.417,0.361,0.249,0.264,0.25,0.244,0.242
NCI-H460,0.506,0.415,0.333,0.171,0.0988,0.163,0.149,0.137,0.15,0.113,0.374,0.385,0.314,0.194,0.102,0.0578,0.0622,0.0632,0.0572,0.0629
NCI-H661,0.759,0.429,0.676,0.197,0.428,0.421,0.392,0.374,0.414,0.374,0.543,0.533,0.533,0.473,0.469,0.915,0.898,0.854,0.929,0.861
HCC-15,0.924,0.825,0.856,0.531,0.579,0.755,0.854,0.586,0.748,0.885,0.614,0.599,0.56,0.511,0.341,0.241,0.222,,0.23,0.213
LCLC-103H,0.944,0.957,0.923,0.844,0.764,0.3,0.509,0.452,0.435,0.558,0.73,0.663,0.426,0.587,0.687,0.42,0.473,0.469,0.509,0.529
NCI-H441,0.85,0.678,0.803,0.524,0.513,0.24,0.186,0.136,0.217,0.239,0.256,0.22,0.249,0.219,0.172,0.31,0.247,0.293,0.271,0.279
EPLC-272H,0.968,0.834,0.881,0.647,0.843,0.343,0.323,,0.334,0.368,0.384,0.362,0.341,0.338,0.256,0.257,0.315,0.317,0.336,0.284
